Where only a bound is given, the exact number is not on record here.

For this experiment, the target named is T1, human CaMKIIδ (Homo sapiens, UniProt Q13557).
T1 construct: Full-length, glutathione-S-transferase(GST)-tagged, human CaMKIIδ was purchased from Carna Biosciences; purchased Carna Biosciences (CaMKIIδ); Wako Pure Chemical Industries (calmodulin) 02-111
The experiment can be described thus: Evaluation of in vitro CaMKII inhibitory activity (binding assay, TR-FRET). The settings on record: in vitro CaMKII inhibitory activity (binding assay), human CaMKIIδ; read-out: Act. How it is done:
Evaluation of In Vitro CaMKII Inhibitory Activity (Binding Assay)
In vitro CaMKIIδ inhibitory activity was evaluated by a binding assay.
Full-length bovine calmodulin was purchased from Wako Pure Chemical Industries (Osaka, Japan). Terbium-labeled anti-GST anti body (Tb-anti-GST Ab) was purchased from Life Technologies (Carlsbad, CA, USA). Fluorescent probe ligand, 5,5-difluoro-7,9-dimethyl-3-(3-oxo-3-((3-((4-(3-(piperazin-1-yl)phenyl)pyrimidin-2-yl)amino)phenyl)amino) propyl)-5H-dipyrrolo[1,2-c:2′,1′-f]
Time-resolved fluorescence resonance energy transfer (TR-FRET) assay
The fluorescent probe ligand, 5,5-difluoro-7,9-dimethyl-3-(3-oxo-3-((3-((4-(3-(piperazin-1-yl)phenyl)pyrimidin-2-yl)amino)phenyl)amino) propyl)-5H-dipyrrolo[1,2-c:2′,1′-f] […] After shaded incubation of the protein-probe mixture on ice for 30 min, the premix was dispensed in the assay plate including test inhibitors with 4 fold dilution series of eight concentrations. After 1 hr incubation at room temperature, TR-FRET signals were measured in duplicate using an EnVision microplate reader (Perkin Elmer, Waltham, MA, USA).
The half maximal inhibitory concentration (IC50) of test compounds was calculated by fitting the data with the logistic equation using XLfit (IDBS, Guildford, UK).
For orientation: Time-resolved FRET reads energy transfer from a long-lived donor to a nearby acceptor.
For `C[C@@H](Cn1cnnn1)Oc1cccc(-c2ccc3ncn(-c4cc(F)ccc4C#N)c3n2)n1` [Example 345, 4-fluoro-2-[5-(6-{[(2S)-1-(1H-tetrazol-1-yl)propan-2-yl]oxy}pyridin-2-yl)-3H-imidazo[4,5-b]pyridin-3-yl]benzonitrile], the IC50 is less than 0.01 µM. The result for `C[C@@H](Cn1cnnn1)Oc1cc(-c2ccc3ncn(-c4cc(F)ccc4C#N)c3n2)cnn1` [Example 347, 4-fluoro-2-[5-(6-{[(2S)-1-(1H-tetrazol-1-yl)propan-2-yl]oxy}pyridazin-4-yl)-3H-imidazo[4,5-b]pyridin-3-yl]benzonitrile] reads 0.01 to 0.1 µM.

Turning to `C[C@@H](Cn1cnnn1)Oc1cccc(-c2ccc3ncc(-c4nccc(OCC(F)F)c4C#N)n3n2)c1` [Example 354, 4-(2,2-difluoroethoxy)-2-[6-(3-{[(2S)-1-(1H-tetrazol-1-yl)propan-2-yl]oxy}phenyl)imidazo[1,2-b]pyridazin-3-yl]pyridine-3-carbonitrile], the IC50 was less than 0.01 µM. Turning to `CNc1ccnc(-c2cnc3ccc(-c4cccc(O[C@@H](C)Cn5cnnn5)c4)nn23)c1C#N` [Example 358, 4-(methylamino)-2-[6-(3-{[(2S)-1-(1H-tetrazol-1-yl)propan-2-yl]oxy}phenyl)imidazo[1,2-b]pyridazin-3-yl]pyridine-3-carbonitrile], the IC50 is less than 0.01 µM. With `C[C@@H](Cn1cnnn1)Oc1cccc(-c2ccn3nc(F)c(-c4cc(F)ccc4C#N)c3n2)c1` [Example 379, 4-fluoro-2-[2-fluoro-5-(3-{[(2S)-1-(1H-tetrazol-1-yl)propan-2-yl]oxy}phenyl)pyrazolo[1,5-a]pyrimidin-3-yl]benzonitrile] the figure was less than 0.01 µM; with `C[C@@H](Cn1cnnn1)Oc1cccc(-c2ccc3ncn(-c4cc(C(F)F)ccc4C#N)c3n2)c1` [Example 383, 4-(difluoromethyl)-2-[5-(3-{[(2S)-1-(1H-tetrazol-1-yl)propan-2-yl]oxy}phenyl)-3H-imidazo[4,5-b]pyridin-3-yl]benzonitrile], less than 0.01 µM; with `COc1cc(F)cc(-c2cnc3ccc(-c4cncc(O[C@@H](C)Cn5cnnn5)n4)nn23)c1C#N` [Example 392, 4-fluoro-2-methoxy-6-[6-(6-{[(2S)-1-(1H-tetrazol-1-yl)propan-2-yl]oxy}pyrazin-2-yl)imidazo[1,2-b]pyridazin-3-yl]benzonitrile], less than 0.01 µM.

With `COc1cc(F)cc(-n2cnc3ccc(-c4cccc(O[C@@H](C)Cn5cnnn5)n4)nc32)c1C#N` [Example 393, 4-fluoro-2-methoxy-6-[5-(6-{[(2S)-1-(1H-tetrazol-1-yl)propan-2-yl]oxy}pyridin-2-yl)-3H-imidazo[4,5-b]pyridin-3-yl]benzonitrile], the IC50 was less than 0.01 µM.

`COc1nccc(-c2cnc3ccc(-c4ccc(F)c(O[C@@H](C)Cn5cnnn5)c4)nn23)c1C#N` [Example 399, 4-[6-(4-fluoro-3-{[(2S)-1-(1H-tetrazol-1-yl)propan-2-yl]oxy}phenyl)imidazo[1,2-b]pyridazin-3-yl]-2-methoxypyridine-3-carbonitrile]: the IC50 is less than 0.01 µM. `C[C@@H](Cn1cnnn1)Oc1cccc(-c2ccc3ncc(-c4cc(F)cc(OC(F)F)c4C#N)n3n2)n1` [Example 409, 2-(difluoromethoxy)-4-fluoro-6-[6-(6-{[(2S)-1-(1H-tetrazol-1-yl)propan-2-yl]oxy}pyridin-2-yl)imidazo[1,2-b]pyridazin-3-yl]benzonitrile]: the IC50 is less than 0.01 µM.

For `COc1cc(F)cc(-c2cnc3ccc(-c4cccc(O[C@@H](C)Cn5cnnn5)n4)nn23)c1C#N` [Example 410, 4-fluoro-2-methoxy-6-[6-(6-{[(2S)-1-(1H-tetrazol-1-yl)propan-2-yl]oxy}pyridin-2-yl)imidazo[1,2-b]pyridazin-3-yl]benzonitrile], the IC50 was less than 0.01 µM.

As for `C[C@@H](Cn1cnnn1)Oc1cccc(-c2ccc3ncc(-c4cccc(OC(F)F)c4C#N)n3n2)c1` [Example 412, 2-(difluoromethoxy)-6-[6-(3-{[(2S)-1-(1H-tetrazol-1-yl)propan-2-yl]oxy}phenyl)imidazo[1,2-b]pyridazin-3-yl]benzonitrile], the IC50 was less than 0.01 µM.

(Values after patent publication US12528816B2, “Substituted imidazo [1,2-b] pyridazines and [1, 2, 4] triazolo [ 4,3-b] pyridazines as camkii inhibitors” (Cardurion Pharmaceuticals, INC., priority 2020, dated 2026).)
